Results taken from PubChem BioAssay AID179 (DTP/NCI, 2004).
Activity calls are given as the source filed them.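 How the source made its calls: active means compounds giving half or more protection of infected cells from virus-caused growth loss, again on retest; inactive means the rest.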 Where a SMILES comes first, the peptide text is derived from it.

Test system: CEM cells HIV-1 protection, formazan growth assay
Test: NCI AIDS Antiviral Assay
Conditions: for IC50: measured here: growth of uninfected CEM cells
How it was run: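 Protection of CEM cells against HIV-1 was scored from cell growth (soluble formazan) across five concentrations, with parallel uninfected cells. Lack of protection may reflect toxicity.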

Row | Structure (SMILES) | outcome | EC50 [µM] | IC50 [µM]
1 | O=C(O)CC(O)(c1ccccc1C(=O)O)c1cccc2ccccc12 (centres undefined) | inactive | – | –
2 | COc1cc2c(cc1O)N=C[C@@H]1CCC(O)N1C2=O (mixture of isomers) | – | > 324 | 0.575
3 | CCCCN(C(=O)NCCC)S(=O)(=O)c1ccc(Cl)cc1 | inactive | – | –
4 | CCCCNC(=O)n1ncc2cc([N+](=O)[O-])c([N+](=O)[O-])cc21 | – | > 200 | 25.7
5 | COc1ccc(/C=C(/C(C)=O)C(=O)c2ccccc2)cc1 | – | > 129 | 38
6 | Cc1ccc(/C=C/C(=O)c2sc(-c3nc(C)c(C(=O)/C=C/c4ccc(C)cc4)s3)nc2C)cc1 | – | > 38.9 | > 38.9
7 | CCc1c(O)n(Cc2nc3ccccc3[nH]2)c(=S)n(-c2ccccc2)c1=O | – | > 200 | > 200
8 | c1ccc2c(c1)C1CCCCCC21N1CCOCC1 (centres undefined) | – | > 200 | 170
9 | O=C1C2=Cc3ccccc3OC2(O)Oc2cc(O)cc(O)c21 (centres undefined) | – | > 200 | 91.2
10 | CCCCC1C=Cn2c(=O)oc3c(OC(C)C)c(C)c(O)c1c32 (centres undefined) | – | > 200 | 2.51
11 | [O-]c1on[n+]2c1CSC2 | – | > 1740 | > 1740
12 | CC(CN1CCN(CC(C)Nc2ccnc3cc(Cl)ccc23)CC1)Nc1ccnc2cc(Cl)ccc12 (centres undefined) | – | > 50.1 | > 50.1
13 | O=c1c2ccccc2[se]n1-c1ccc(I)cc1 | – | > 11 | 10.7
14 | Nc1nc(=O)[nH]c(N)c1N=O | – | > 200 | > 200
15 | Cc1ccc(NC(=O)CC/C(CC(=O)C(C)(C)C)=N/Nc2nnc(C)n2N)cc1C | – | > 87.1 | > 87.1
16 | OC1(c2ccccc2)CCCCCCCCC(O)(c2ccccc2)CCCCCCCC1 (centres undefined) | – | > 200 | > 200
17 | COC1(C)C(=O)N2C1N(C(C)=O)CC2(C)C (centres undefined) | – | > 501 | > 501
18 | Cc1cc(Cl)ccc1N=NC(=O)NNc1ccc(Cl)cc1C | – | > 200 | 52.5
19 | S=c1oc(CCCCCCCCc2nn(CNc3ccc(Cl)cc3)c(=S)o2)nn1CNc1ccc(Cl)cc1 | inactive | – | –
20 | Cn1c(=O)c(S(C)=O)c(O)c2ccccc21 (centres undefined) | – | > 200 | > 200
21 | CN1CN(c2ccccc2)C2(CCN(CCCC(=O)c3cccs3)CC2)C1=O | – | > 200 | 38.9

Row | Structure (SMILES) | outcome | EC50 [µM] | IC50 [µM]
22 | COc1c(C(=O)NCCN(CCNC(=O)c2cccc(-c3cccc(C(=O)N(C)C)c3OC)c2OC)CCNC(=O)c2cccc(-c3cccc(C(=O)N(C)C)c3OC)c2OC)cccc1-c1cccc(C(=O)N(C)C)c1OC | inactive | – | –
23 | O=C1NC(=O)C(CC2CCCCCCCCCCC2=O)C(=O)N1 (centres undefined) | – | > 112 | > 112
24 | CCCCCCCCCCCCC(=O)CCCCC(=O)O | inactive | – | –
25 | C[C@@H](NC(=O)c1ccccc1SC(=O)OCC[n+]1ccccc1)C(N)=O | – | 2.82 | > 200
26 | O=c1[nH]c2ccc([As](=O)(O)O)cc2[nH]1 | – | > 200 | > 200
27 | CN(C)C(=C1C(Br)=C(Br)C(Br)=C1Br)N(C)C | inactive | – | –
28 | CC1(C)C2CCC3=C(CCC4(C)C5C[C@](C)(C(=O)O)CC[C@]5(C)CC[C@]34C)[C@@]2(C)CC[C@@H]1O (some centres undefined) | – | 24 | 81.3
29 | CC(=O)NCCC1CNc2ccccc21 (centres undefined) | – | > 200 | > 200
30 | CCCCCCCCCCCC(=O)OCC1OC(n2cc(F)c(=O)[nH]c2=O)C(NC(=O)OCc2ccccc2)C(OC(=O)CCCCCCCCCCC)C1O (centres undefined) | – | > 6.61 | > 6.61
31 | O=C1OC(C2Cc3ccc4ccccc4c3C2=O)c2ccccc21 (centres undefined) | – | > 100 | 74.1
32 | O=c1[nH]c(Nc2cccc(Cl)c2)nc2nc[nH]c12 | – | > 200 | 151
33 | NNC(=O)CCc1c[nH]c2ccccc12 | – | > 1230 | 661
34 | CC1(O)c2ccccc2[P+](C)(c2ccccc2)c2ccccc21 (centres undefined) | – | > 562 | 29.5
35 | CCCCNc1nc2ccccc2c2c1ncn2CC(C)C | – | > 200 | 20
36 | Cc1cc2cc3c(C)cc(=O)oc3c(C)c2o1 | – | > 56.2 | > 56.2
37 | CC(=O)N(O)Cc1ccccc1 | – | > 1510 | 692
38 | O=C(CSCc1cc(S(=O)(=O)O)c2cccnc2c1O)Nc1ccc(/C=C/c2ccc(NC(=O)CSCc3cc(S(=O)(=O)O)c4cccnc4c3O)cc2S(=O)(=O)O)c(S(=O)(=O)O)c1 | – | > 200 | > 200
39 | CC(C)CC(NC(=O)C(Cc1ccc(O)cc1)NC(=O)C(CO)NC(=O)C(C)NC(=O)C(CO)NC(=O)C(CCC(=O)O)NC(=O)C(NC(=O)C(N)CCC(=O)O)C(C)C)C(=O)NC(CCCN=C(N)N)C(=O)NC(CCCCN)C(=O)O (centres undefined) (H-EVESASYLRK-OH; configuration not given here) | inactive | – | –
40 | CCN(CC)CC(=O)Nc1cccc(Cl)c1 | – | > 200 | > 200
41 | O=S(=O)(O)c1ccc(-c2nnc(-c3ccccn3)nc2-c2ccc(S(=O)(=O)O)o2)o1 | – | > 200 | > 200
42 | COc1cc(OC)cc(Oc2nc3ccc(C(F)(F)F)cc3nc2-c2ccccc2)c1 | – | > 200 | > 200

Row | Structure (SMILES) | outcome | EC50 [µM] | IC50 [µM]
43 | Nc1ccc2c(c1)C(=O)OC2(C(F)(F)F)C(F)(F)F | – | > 200 | 93.3
44 | CC(=O)c1cccc(NC(=O)C(=O)C(C2OC(=O)c3ccccc32)[N+](=O)[O-])c1 (centres undefined) | – | > 468 | > 468
45 | c1ccc(Nc2nnnn2-c2ccccc2)cc1 | – | > 200 | > 200
46 | Cc1nn(C(=O)c2ccccc2O)c2c1C(c1ccc([N+](=O)[O-])cc1)SC(N)=N2 (centres undefined) | – | > 2 | 0.389
47 | CC1CNC2(c3ccccc3)CSC=C(c3ccccc3)N12 (centres undefined) | – | > 200 | 117
48 | Cc1ccc([Si](O)(c2ccc(C)cc2)c2ccc(C)cc2)cc1 | – | > 200 | 12
49 | O=c1c(-c2c(-c3ccccc3)oc3ccc(Cl)cc3c2=O)c(-c2ccccc2)oc2ccc(Cl)cc12 | – | > 200 | > 200
50 | COc1ccc(C[C@H]2COC(=O)[C@@H]2Cc2cccc(Br)c2)cc1OC | – | > 200 | 31.6
51 | c1ccc(C2=Nc3ccccc3N=C(c3ccccc3)C2)cc1 | – | > 17.8 | > 17.8
52 | O=C1c2cc(Cc3ccccc3)c(=O)c(Cc3ccccc3)cc2C(=O)c2cc(Cc3ccccc3)c(=O)c(Cc3ccccc3)cc21 | – | > 200 | > 200
53 | O=c1ccc2c(-c3ccccc3S(=O)(=O)O)c3ccc(O)c(O)c3oc-2c1O | – | 2.4 | > 200
54 | Cc1cc(C)n(-c2nc(C)c(CCO)c(=O)[nH]2)n1 | inactive | – | –
55 | C/C(CC(=O)Nc1cccc(C)c1C)=N\NC(N)=S | – | > 468 | 245
56 | CCN(CC)c1ccc(C2N3CCCCC3[C@@H]3c4[nH]c5ccccc5c4CCN23)cc1 (some centres undefined) | – | > 16.2 | > 16.2
57 | N#Cc1ccc(C(C2C(=O)NC(=O)NC2=O)C2C(=O)NC(=O)NC2=O)cc1 | – | > 70.8 | > 70.8
58 | CCCCCCCCC#CCCCCCCC(F)C(=O)O (centres undefined) | inactive | – | –
59 | CCCCN(CC)C(=O)C(=O)Cc1nc2ccc(C(=O)c3ccccc3)cc2[nH]c1=O | – | > 17.4 | > 17.4
60 | CN(C)Cc1cc(CN(C)C)c(O)c(CN(C)C)c1 | – | > 200 | > 200
61 | Cc1cc(N(CCCl)CCCl)ccc1N=Nc1ccccc1 | – | > 200 | 19.5
62 | CCC1CN2CCc3cc(OC)c(OC)cc3C2CC1CC1c2cc(OC)c(OC)cc2CCN1C(=O)C(Cc1c[nH]c2ccccc12)NC(=O)OC(C)(C)C (centres undefined) | inactive | – | –
